Values quoted from earlier work in US20070298096A1, “Analgesic/Antipyretic Compositions for Enhanced Absorption” (priority 2004, published 2007).
Read-outs that look alike come from different tables or passages of the source.

tmax (1 gram of APAP administered with 4 grams of calcium carbonate): 1.9 h
tmax (APAP alone, 1 gram): 1.4 h
time for the plasma level of APAP to reach its maximum, longer than APAP alone (co-administered with the calcium carbonate): ½
Compound: CC(=O)Nc1ccc(O)cc1 [APAP, acetaminophen]
